Measurements taken from US6953813B1, “2-Aminotetralin derivatives for the therapy of glaucoma” (Chiesi Farmaceutici S.p.A., priority 1999, dated 2005).

Test system: normotensive Dutch Belted rabbits
Experiment: Intraocular pressure (IOP) after single dose in normotensive rabbits
Assay type: in vivo, rabbit
Procedure: Water (pH 4.5, made isotonic with sodium chloride), was selected as vehicle for the IOP-studies.
Five concentrations (0.01, 0.05, 0.2, 0.5 and 1.0% w/v) of CHF 1035 were studied. Brimonidine (0.2% w/v) was used as a positive, and vehicle (water pH 4.5) as a negative control.
The experimental animals used were normotensive Dutch Belted rabbits of either gender (n=6). A single drop (25 μl) of the test solution was instilled unilaterally into the left eye (treated eye). IOP of the rabbits (treated and untreated eyes) was measured at 1 and 0 h before, and at 0.5, 1, 2, 3, 4, 5, 6 and 7 h after topical eyedrop administration. IOP at the time of eyedrop administration (0 h) was used as a baseline value. IOP was measured using a BioRad Pneumatonometer. More detailed description of the IOP measurement procedure can be found in Pharm. Res. 14, 1738-1743, 1997 and Curr. Eye Res. 14, 791-797, 1995. All the studies were set up using a randomized crossover design. At least 72 h of wash-out time was allowed for each rabbit between dosings. The irritation caused by an instilled eyedrop were evaluated by recording the extent of eyelid closure after topical eyedrop administration.

[1] = topical single dose, normotensive rabbits

CNC1CCc2c(ccc(OC(=O)C(C)C)c2OC(=O)C(C)C)C1 (racemic) [CHF 1035, (±)-(R,S)-5,6-diisobutyryloxy-2-methylaminotetralin]
duration of action compared with brimonidine (normotensive rabbits): longer duration of action than brimonidine
effectiveness in decreasing IOP compared with brimonidine (normotensive rabbits): more effective in decreasing IOP than brimonidine
onset of action (normotensive rabbits): late onset of action
IOP decrease in the untreated eye [1]: no significant IOP decrease is observed in the untreated eye
effect on IOP in the treated eye [1]: decreases significantly the IOP in the treated eye
IOP changes (mean ± SEM) in the treated eye (0.01% w/v, 0 min): 0.0 ± 0.0 mmHg
IOP changes (mean ± SEM) in the treated eye (0.01% w/v, 30 min): −1.9 ± 0.9 mmHg
IOP changes (mean ± SEM) in the treated eye (0.01% w/v, 60 min): −4.2 ± 1.1 mmHg
IOP changes (mean ± SEM) in the treated eye (0.01% w/v, 120 min): −5.3 ± 0.7 mmHg
IOP changes (mean ± SEM) in the treated eye (0.01% w/v, 180 min): −5.0 ± 1.0 mmHg
IOP changes (mean ± SEM) in the treated eye (0.01% w/v, 240 min): −4.5 ± 1.3 mmHg
IOP changes (mean ± SEM) in the treated eye (0.01% w/v, 300 min): −4.3 ± 0.9 mmHg
IOP changes (mean ± SEM) in the treated eye (0.01% w/v, 360 min): −2.6 ± 0.6 mmHg
IOP changes (mean ± SEM) in the treated eye (0.01% w/v, 420 min): −1.3 ± 0.8 mmHg
IOP changes (mean ± SEM) in the treated eye (0.05% w/v, 0 min): 0.0 ± 0.0 mmHg
IOP changes (mean ± SEM) in the treated eye (0.05% w/v, 30 min): −0.4 ± 0.5 mmHg
IOP changes (mean ± SEM) in the treated eye (0.05% w/v, 60 min): −3.3 ± 0.4 mmHg
IOP changes (mean ± SEM) in the treated eye (0.05% w/v, 120 min): −6.5 ± 0.9 mmHg
IOP changes (mean ± SEM) in the treated eye (0.05% w/v, 180 min): −6.3 ± 0.9 mmHg
IOP changes (mean ± SEM) in the treated eye (0.05% w/v, 240 min): −6.7 ± 0.8 mmHg
IOP changes (mean ± SEM) in the treated eye (0.05% w/v, 300 min): −6.4 ± 0.8 mmHg
IOP changes (mean ± SEM) in the treated eye (0.05% w/v, 360 min): −5.5 ± 0.7 mmHg
IOP changes (mean ± SEM) in the treated eye (0.05% w/v, 420 min): −4.3 ± 0.5 mmHg
IOP changes (mean ± SEM) in the treated eye (0.2% w/v, 0 min): 0.0 ± 0.0 mmHg
IOP changes (mean ± SEM) in the treated eye (0.2% w/v, 30 min): 0.8 ± 0.9 mmHg
IOP changes (mean ± SEM) in the treated eye (0.2% w/v, 60 min): −0.4 ± 1.1 mmHg
IOP changes (mean ± SEM) in the treated eye (0.2% w/v, 120 min): −2.1 ± 0.7 mmHg
IOP changes (mean ± SEM) in the treated eye (0.2% w/v, 180 min): −6.0 ± 0.9 mmHg
IOP changes (mean ± SEM) in the treated eye (0.2% w/v, 240 min): −6.3 ± 1.0 mmHg
IOP changes (mean ± SEM) in the treated eye (0.2% w/v, 300 min): −7.6 ± 1.5 mmHg
IOP changes (mean ± SEM) in the treated eye (0.2% w/v, 360 min): −6.9 ± 1.0 mmHg
IOP changes (mean ± SEM) in the treated eye (0.2% w/v, 420 min): −5.7 ± 1.1 mmHg
IOP changes (mean ± SEM) in the treated eye (0.5% w/v, 0 min): 0.0 ± 0.0 mmHg
IOP changes (mean ± SEM) in the treated eye (0.5% w/v, 30 min): 1.8 ± 0.6 mmHg
IOP changes (mean ± SEM) in the treated eye (0.5% w/v, 60 min): 1.2 ± 0.7 mmHg
IOP changes (mean ± SEM) in the treated eye (0.5% w/v, 120 min): 0.1 ± 0.7 mmHg
IOP changes (mean ± SEM) in the treated eye (0.5% w/v, 180 min): −5.0 ± 1.2 mmHg
IOP changes (mean ± SEM) in the treated eye (0.5% w/v, 240 min): −5.6 ± 0.6 mmHg
IOP changes (mean ± SEM) in the treated eye (0.5% w/v, 300 min): −7.9 ± 0.9 mmHg
IOP changes (mean ± SEM) in the treated eye (0.5% w/v, 360 min): −6.9 ± 0.8 mmHg
IOP changes (mean ± SEM) in the treated eye (0.5% w/v, 420 min): −7.0 ± 0.8 mmHg
IOP changes (mean ± SEM) in the treated eye (1.0% w/v, 0 min): 0.0 ± 0.0 mmHg
IOP changes (mean ± SEM) in the treated eye (1.0% w/v, 30 min): 1.3 ± 0.9 mmHg
IOP changes (mean ± SEM) in the treated eye (1.0% w/v, 60 min): 0.4 ± 1.0 mmHg
IOP changes (mean ± SEM) in the treated eye (1.0% w/v, 120 min): 0.1 ± 0.9 mmHg
IOP changes (mean ± SEM) in the treated eye (1.0% w/v, 180 min): −3.2 ± 1.8 mmHg
IOP changes (mean ± SEM) in the treated eye (1.0% w/v, 240 min): −4.9 ± 1.5 mmHg
IOP changes (mean ± SEM) in the treated eye (1.0% w/v, 300 min): −5.8 ± 1.6 mmHg
IOP changes (mean ± SEM) in the treated eye (1.0% w/v, 360 min): −6.6 ± 1.6 mmHg
